According to patent US20110008279A1, “Methods and Compositions Relating to Adhesins as Adjuvants” (priority 2005, published 2011):

What was measured:
Chang cells = test: NadA binding to Chang cells (heparin, competition with non-labelled NadA); parameters: species or system human; details: NadA 600 nM, fluorescence microscopy
Description: Chang and CHO-K1 cells were incubated for 3 h at 37° C. with Alexa^488-labeled NadAΔ351-405 (250 nM) in the presence or the absence of non-labelled NadAΔ351-405 (0, 1, 2.5 or 5 μM), washed and analyzed by FACS; results shown are the relative MFI values ±SE, n=3.
Chang cells were incubated at 37° C. for 3 h with NadA 600 nM and re-incubated 10 min at 37° C. with heparin.

mo-DCs = test: Real-time PCR of cytokine mRNA in mo-DCs; assay type: cell-based, human
Description: Mo-DC were pre-treated or not with IFN-γ 1000 U/ml and stimulated with NadA […] and LPS […] for 3-5-8 h. Treated and untreated cells were pelleted and used for RNA isolation. Total RNA was extracted using the TRIzolÒ reagent (GibcoBRL) according to the manufacturer's instruction, precipitated and resuspended in […] of RNAse free water (Gibco). RNA was quantified with a fluorescence spectrophotometer (BeckmanDU 530). First strand cDNA was prepared from […] of total RNA by using the Superscript™ II Reverse Transcriptase (Invitrogen) with oligodT primers (Sigma Genosys). The cDNA levels of IL12p35, IL12p40, IL-23p19, TNF-α and IL-6 were quantified by Real Time quantitative PCR using a qPCRTM Core Kit for Sybr Green I (Eurogentec) with a GeneAmp 5700 Sequence Detection System according to the manifacturer's instructions (Applied Biosystems). After an initial denaturation step at 95° C. for 10 min, temperature cycling was initiated. Each cycle consisted of 30 sec at 95° C. and 30 sec at 60° C. […]
All amplification products were cloned into a TOPO TA vector (Invitrogen) and quantified by Beckman DU 530 spectrophotometer. […]
The cDNA levels during the linear phase of amplification were normalized against HMBS. […] CT values were determined by the GeneAmp 5700 SDS software using fluorescence threshold manually set and exported into Excel for analysis.

naïve T cells = test: Intracellular detection of IFN-γ and IL-4 in T cells by flow cytometry; assay type: cell-based, human; details: T cells activated by IFN-γ primed, matured mo-DCs
Description: Mo-DC pre-treated in various conditions were co-cultured with naïve T cells for five days and re-stimulated with ionomycin 1 μg/ml and PMA 10 ng/ml for 2.5 h and for 3 h in the presence of a Brefeldin-A, (10 μg/ml final concentration). Cells were then washed and fixed for 15 min (Fix and Penn cell permeabilization kit, Caltag). After one washing step cells were permeabilised and stained with FITC conjugated anti interferon-γ mAB (BD-Pharmigen) and PE conjugated anti IL-4 mAb (Caltag) or with irrelevant isotype control for 30 min. Then cells were washed again, resuspended and analysed by flow cytoflorimetry.

monocytes = test: NadA binding to monocytes; parameters: species or system human
Description: The graphs plot the mean fluorescence intensities (MFI) ±SD measured in monocytes that have been incubated with NadAΔ351-405-Alexa, at different concentrations (A), or with 100 nM NadAΔ351-405-Alexa in presence of increasing concentrations of unlabelled protein (B), for 3 hours at 37° C. or 0° C. The reported data are the average of three independent experiments repeated in triplicate.
The dose-dependent preferential association of NadA to CD14^+ monocytes was also confirmed by MFI analysis. Competition using non-labelled ligand ascertained whether NadA binding was specific (FIG. 12). […] Based on the molecular weight of the NadA monomer, this value is in fact ˜1 μM, since the recombinant protein used in the experiment is a homo-trimer.

human macrophages = test: Morphology of macrophages (light microscopy); assay type: cell-based
Description: DCs cultured for 5 days in 6-well plates (Costar) were treated with recombinant human IFN-γ (1000 U/ml) for 18 h before NadA (1.5 μM) or LPS (1 μg/ml) stimulation for 4 h. Control cultures were untreated cells or treated with IFN-γ alone.
The same experiment was also carried out using macrophages.

human monocytes [1] = test: Soluble mediator secretion by monocytes after 3 and 7 culture days, re-stimulated with LPS; assay type: cell-based
Description: The secretion of the main immune mediators by human monocytes, after 3 and 7 culture days following stimulation with NadAΔ351-405 or LPS, was tested with a Bioplex immune array after 24 hours incubation with LPS. Analysis was performed to test pro-inflammatory cytokine TNFα and IL6, regulatory cytokine IL-10 and IL-12(p70) and chemokine IL-8, MCP-1, MIP1-α, RANTES and […] secretion.

[2] = test system: alternative pathway in the complement system; test: Bactericidal assay, complement alternative pathway (NHS, Mg2+/EGTA, E. coli-pET); assay type: biochemical, human; details: 3 μM, control E. coli-pET
Description: Complement activation by the alternative pathway was also investigated. […] The susceptibility to complement-mediated lysis was determined by incubating E. coli-NadA and E. coli-pET with 0-75% NHS at 37° C. for 15 min under agitation. The number of surviving bacterial cells was measured by serial agar plating and colony counting.

human monocytes [3] = test: Long-term differentiation of monocytes, surface markers; assay type: cell-based; details: culture up to 7 days
Description: In order to evaluate the possible long-term, differentiation effect of NadA, adherent monocytes were treated with medium alone, NadAΔ351-405 or E. coli LPS and cells were cultured for seven days. At day 4 the agonists were added again to ensure a constant stimulation. Cell morphology was monitored by light microscopy after 1, 2, 3 and 7 days. […] NadAΔ351-405 thus induces both alteration cell morphology and distribution, this is a good indicator of monocyte activation and differentiation.
The long-term, differentiation effect of NadAΔ351-405 on monocytes was further investigated by measuring the expression of the antigen presentation marker MHC-II, co-stimulatory molecules CD80 and CD86 and cell-specific molecules: CD14 (monocyte), CD16 (macrophage) and CD1a (Dendritic cell).

NadAΔ351-405
protein binding to Chang cells in the presence of heparin (Chang cells): dose-dependent reduction | IL12-p40, IL12-p35 and IL-23p19 transcription (mo-DCs): increased by NadA only if cells were primed with IFN-γ | transcription activities of genes encoding IL-6, TNFα, p40, p35 and p19 relative to LPS-activated cells (mo-DCs; IFN-γ primed mo-DCs): < 1% | IFN-γ+ T cells, % of total T cell population (naïve T cells): 13-31% | IFN-γ+/IL-4+ T cells, % of total T cell population (naïve T cells): 4-12% | IL-4+ T cells, % of total T cell population (naïve T cells): 3-18% | decrease of the signal associated to monocytes by excess non-labelled NadA (monocytes; 5 uM non-labelled, 125 nM Alexa-NadA, 37° C., BafA1): −50% | affinity (Kd) of association to monocyte (monocytes; NadA-I125 conjugate, Scatchard Plot): ~3000 nM | Kd of association to monocyte, value for the homo-trimer (monocytes; corrected because the recombinant protein is a homo-trimer): ~1000 nM | cell clustering compared to LPS treatment (human macrophages): reduced clustering | IL-6 production (human monocytes [1]; after 3 days of culture, re-stimulated with LPS): greater production of IL-6 compared to LPS-treated cells | IL-10 production (human monocytes [1]; cultured cells re-stimulated with LPS): able to induce IL-10 production | effect on the alternative pathway [2]: partially inhibit | CD1a expression (human monocytes [3]): not increased | CD14 expression (human monocytes [3]): steadily increased on days two and three | CD16 expression (human monocytes [3]): increased more intensely than in the control cells in the first three days | CD80 expression (human monocytes [3]): not over-expressed | CD86 expression (human monocytes [3]): increased more intensely than in the control cells in the first three days | HLA-DR surface expression (human monocytes [3]): reached a maximal expression level on day three
